Laboratory results taken from patent publication US12428430B2 (BRISTOL-MYERS SQUIBB COMPANY, priority 2018, dated 2025).

What follows are molecules tested against hLPA1 (Homo sapiens, UniProt Q92633) (assay: LPA1 functional antagonist assay (LPA-induced calcium flux in CHO cells overexpressing human LPA1)). Settings: antagonist mode, inhibition of calcium flux induced by 10 nM LPA, read-out: hLPA1 IC50.
Format: cell-based
Set-up: expressed in transfected cells; host or cells: Chinese hamster ovary (CHO) cells
Procedure: The effectiveness of compounds of the present invention as LPA1 inhibitors can be determined in an LPA1 functional antagonist assay as follows:
Chinese hamster ovary cells overexpressing human LPA1 were plated overnight (15,000 cells/well) in poly-D-lysine coated 384-well microplates (Greiner bio-one, Cat #781946) in DMEM/F12 medium (Gibco, Cat #11039). Following overnight culture, cells were loaded with calcium indicator dye (AAT Bioquest Inc, Cat #34601) for 30 minutes at 37° C. The cells were then equilibrated to room temperature for 30 minutes before the assay. Test compounds solubilized in DMSO were transferred to 384 well non-binding surface plates (Corning, Cat #3575) using the Labcyte Echo acoustic dispense and diluted with assay buffer [1×HBSS with calcium/magnesium (Gibco Cat #14025-092), 20 mM HEPES (Gibco Cat #15630-080) and 0.1% fatty acid free BSA (Sigma Cat #A9205)] to a final concentration of 0.5% DMSO. Diluted compounds were added to the cells by FDSS6000 (Hamamatsu) at final concentrations ranging from 0.08 nM to 5 μM. and were then incubated for 20 min at room temperature at which time LPA (Avanti Polar Lipids Cat #857130C) was added at final concentrations of 10 nM to stimulate the cells. The compound IC50 value was defined as the concentration of test compound which inhibited 50% of the calcium flux induced by LPA alone. IC50 values were determined by fitting data to a 4-parameter logistic equation (GraphPad Prism, San Diego Calif.).

Chain of hLPA1 (Q92633 whole entry): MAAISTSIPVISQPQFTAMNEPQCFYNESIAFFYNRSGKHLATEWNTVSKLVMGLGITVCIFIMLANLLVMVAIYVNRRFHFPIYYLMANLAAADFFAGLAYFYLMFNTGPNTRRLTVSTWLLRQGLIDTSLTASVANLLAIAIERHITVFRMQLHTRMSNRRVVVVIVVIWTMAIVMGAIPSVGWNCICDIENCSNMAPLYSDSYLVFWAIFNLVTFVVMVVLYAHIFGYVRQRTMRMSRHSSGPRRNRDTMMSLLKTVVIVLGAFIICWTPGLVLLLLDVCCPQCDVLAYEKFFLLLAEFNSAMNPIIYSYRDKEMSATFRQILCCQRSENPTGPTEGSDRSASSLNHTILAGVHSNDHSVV

IC50	Molecule
72 nM	Cc1noc(-c2ccc(C34CCC(CC(=O)O)(CC3)OC4)cc2)c1NC(=O)O[C@H](C)c1ccccc1Cl [Example 12, 2-(4-(4-(4-((((R)-1-(2-chlorophenyl)ethoxy)carbonyl)amino)-3-methylisoxazol-5-yl)phenyl)-2-oxabicyclo[2.2.2]octan-1-yl)acetic acid]
303 nM	Cc1ccccc1[C@@H](C)OC(=O)Nc1c(C)noc1-c1ccc(C23CCC(CC(=O)O)(CC2)CO3)cc1 [Example 49, 2-(1-(4-(3-methyl-4-((((R)-1-(o-tolyl)ethoxy)carbonyl)amino)isoxazol-5-yl)phenyl)-2-oxabicyclo[2.2.2]octan-4-yl)acetic acid]
222 nM	Cc1noc(-c2ccc(C34CCC(CC(=O)O)(CC3)CO4)c(F)c2)c1NC(=O)O[C@H](C)C1CC1 [Example 51, 2-(1-(4-(4-((((R)-1-cyclopropylethoxy)carbonyl)amino)-3-methylisoxazol-5-yl)-2-fluorophenyl)-2-oxabicyclo[2.2.2]octan-4-yl)acetic acid]
41 nM	Cc1noc(-c2ccc(C34CCC(CC(=O)O)(CC3)OC4)c(F)c2)c1NC(=O)O[C@H](C)c1ccccc1 [Example 57, 2-(4-(2-fluoro-4-(3-methyl-4-((((R)-1-phenylethoxy)carbonyl)amino)isoxazol-5-yl)phenyl)-2-oxabicyclo[2.2.2]octan-1-yl)acetic acid]
164 nM	C[C@@H](OC(=O)Nc1c(-c2ccc(C34CCC(CC(=O)O)(CC3)OC4)cc2)cnn1C)c1ccccc1Cl [Example 28, 2-(4-(4-(5-((((R)-1-(2-chlorophenyl)ethoxy)carbonyl)amino)-1-methyl-1H-pyrazol-4-yl)phenyl)-2-oxa-bicyclo[2.2.2]octan-1-yl)acetic acid]
88 nM	Cc1noc(C23CCC(c4ccc(CC(=O)O)cc4)(CC2)OC3)c1NC(=O)O[C@H](C)c1ccccc1 [Example 54, (R)-2-(4-(4-(3-methyl-4-(((1-phenylethoxy)carbonyl)amino)isoxazol-5-yl)-2-oxabicyclo[2.2.2]octan-1-yl)phenyl)acetic acid]
157 nM	Cc1noc(-c2ccc(C34CCC(CCC(=O)O)(CC3)CO4)cc2)c1NC(=O)O[C@H](C)c1ccccc1 [Example 58, 3-(1-(4-(3-methyl-4-((((R)-1-phenylethoxy)carbonyl)amino)isoxazol-5-yl)phenyl)-2-oxabicyclo[2.2.2]octan-4-yl)propanoic acid]
116 nM	Cc1noc(-c2ccc(C34CCC(CC(=O)O)(CC3)OC4)cc2)c1NC(=O)O[C@H](C)c1ccccc1 [Example 1, 2-(4-(4-(3-methyl-4-((((R)-1-phenylethoxy)carbonyl)amino)isoxazol-5-yl)phenyl)-2-oxabicyclo [2.2.2]octan-1-yl)acetic acid]
406 nM	Cc1noc(-c2ccc(C34CCC(CC(=O)O)(CC3)OC4)cc2F)c1NC(=O)OC(C)c1ccc(Cl)cc1 (racemic) [Example 24, (±)-2-(4-(4-(4-(((1-(4-chlorophenyl)ethoxy)carbonyl)amino)-3-methyl-isoxazol-5-yl)-3-fluorophenyl)-2-oxabicyclo[2.2.2]octan-1-yl)acetic acid]
418 nM	C[C@@H](OC(=O)Nc1c(-c2ccc(C34CCC(CCC(=O)O)(CC3)OC4)cc2)nnn1C)c1ccccc1Cl [Example 8, 3-(4-(4-(5-((((R)-1-(2-chlorophenyl)ethoxy)carbonyl)amino)-1-methyl-1H-1,2,3-triazol-4-yl)phenyl)-2-oxabicyclo[2.2.2]octan-1-yl)propanoic acid]
93 nM	Cc1noc(C23CCC(c4ccc(CC(=O)O)cc4)(CC2)OC3)c1NC(=O)O[C@H](C)c1ccccc1Cl [Example 56, (R)-2-(4-(4-(4-(((1-(2-chlorophenyl)ethoxy)carbonyl)amino)-3-methyl-isoxazol-5-yl)-2-oxabicyclo[2.2.2]octan-1-yl)phenyl)acetic acid]
57 nM	Cc1noc(-c2ccc(C34CCC(CC(=O)O)(CC3)CO4)c(F)c2)c1NC(=O)O[C@H](C)c1ccccc1 [Example 50, 2-(1-(2-fluoro-4-(3-methyl-4-((((R)-1-phenylethoxy)carbonyl)amino)isoxazol-5-yl)phenyl)-2-oxabicyclo[2.2.2]octan-4-yl)acetic acid]
64 nM	Cc1noc(-c2ccc(C34CCC(CC(=O)O)(CC3)OC4)cc2F)c1NC(=O)O[C@H](C)c1ccccc1Cl [Example 22, 2-(4-(4-(4-((((R)-1-(2-chlorophenyl)ethoxy)carbonyl)amino)-3-methylisoxazol-5-yl)-3-fluorophenyl)-2-oxabicyclo[2.2.2]octan-1-yl)acetic acid]

Second part, the molecule before the results:

Molecule	IC50
CC(C)CCN(C)C(=O)OCc1c(-c2ccc(C34CCC(CC(=O)O)(CC3)OC4)c(F)c2)cnn1C [Example 43, 2-(4-(2-fluoro-4-(5-(((isopentyl(methyl)carbamoyl)oxy)methyl)-1-methyl-1H-pyrazol-4-yl)phenyl)-2-oxabicyclo[2.2.2]octan-1-yl)acetic acid]	271 nM
CC(C)CCN(C)C(=O)OCc1c(-c2ccc(C34CCC(CC(=O)O)(CC3)OC4)cc2F)cnn1C [Example 45, 2-(4-(3-fluoro-4-(5-(((isopentyl(methyl)carbamoyl)oxy)methyl)-1-methyl-1H-pyrazol-4-yl)phenyl)-2-oxabicyclo[2.2.2]octan-1-yl)acetic acid]	1120 nM
Cc1noc(-c2ccc(C34CCC(CC(=O)O)(CC3)CO4)cc2)c1COC(=O)N(C)C1CCCC1 [Example 53, 2-(1-(4-(4-(((cyclopentyl(methyl)carbamoyl)oxy)methyl)-3-methylisoxazol-5-yl)phenyl)-2-oxabicyclo[2.2.2]octan-4-yl)acetic acid]	2550 nM
Cc1noc(-c2ccc(C34CCC(CC(=O)O)(CC3)OC4)cc2)c1COC(=O)N(C)C1CCCC1 [Example 3, 2-(4-(4-(4-(((cyclopentyl(methyl)carbamoyl)oxy)methyl)-3-methylisoxazol-5-yl)phenyl)-2-oxabicyclo[2.2.2]octan-1-yl)acetic acid]	317 nM
CC(C1CCC1)N(C)C(=O)OCc1c(-c2ccc(C34CCC(CCC(=O)O)(CC3)OC4)cc2)nnn1C (racemic) [Example 5, (±)-3-(4-(4-(5-((((1-Cyclobutylethyl)(methyl)carbamoyl)oxy)methyl)-1-methyl-1H-1,2,3-triazol-4-yl)phenyl)-2-oxabicyclo[2.2.2]octan-1-yl)propanoic acid]	440 nM
Cn1ncc(-c2ccc(C34CCC(CC(=O)O)(CC3)OC4)cc2)c1COC(=O)N1CC[C@H](F)C1 [Example 38, 2-(4-(4-(5-((((S)-3-fluoropyrrolidine-1-carbonyl)oxy)methyl)-1-methyl-1H-pyrazol-4-yl)phenyl)-2-oxabicyclo[2.2.2]octan-1-yl)acetic acid]	1900 nM
CC(C)CCN(C)C(=O)OCc1c(-c2ccc(C34CCC(CC(=O)O)(CC3)OC4)cc2)cnn1C [Example 39, 2-(4-(4-(5-(((isopentyl(methyl)carbamoyl)oxy)methyl)-1-methyl-1H-pyrazol-4-yl)phenyl)-2-oxabicyclo[2.2.2]octan-1-yl)acetic acid]	520 nM
CC(C1CCC1)N(C)C(=O)OCc1c(-c2ccc(C34CCC(CC(=O)O)(CC3)OC4)cc2)cnn1C (racemic) [Example 37, (rac)-2-(4-(4-(5-((((1-cyclobutyl-ethyl)(methyl)carbamoyl)oxy)methyl)-1-methyl-1H-pyrazol-4-yl)phenyl)-2-oxabicyclo[2.2.2]octan-1-yl)acetic acid]	166 nM
CN(CCc1ccc(Cl)cc1)C(=O)OCc1c(-c2ccc(C34CCC(CC(=O)O)(CC3)OC4)cc2)cnn1C [Example 41, 2-(4-(4-(5-((((4-chlorophenethyl)(methyl)carbamoyl)oxy)methyl)-1-methyl-1H-pyrazol-4-yl)phenyl)-2-oxabicyclo[2.2.2]octan-1-yl)acetic acid]	2790 nM
CC(C1CC1)N(C)C(=O)OCc1c(-c2ccc(C34CCC(CC(=O)O)(CC3)OC4)cc2)cnn1C (racemic) [Example 36, (rac)-2-(4-(4-(5-((((1-cyclopropyl-ethyl)(methyl)carbamoyl)oxy)methyl)-1-methyl-1-pyrazol-4-yl)phenyl)-2-oxabicyclo[2.2.2]octan-1-yl)acetic acid]	1890 nM
2-(4-(4-(4-((((cyclobutylmethyl)(methyl)carbamoyl)oxy)methyl)-3-methylisoxazol-5-yl)phenyl)-2-oxabicyclo[2.2.2]octan-1-yl)acetic acid [Example 34]	158 nM
CN(Cc1ccccc1)C(=O)OCc1c(-c2ccc(C34CCC(CC(=O)O)(CC3)OC4)cc2)cnn1C [Example 40, 2-(4-(4-(5-(((benzyl(methyl)carbamoyl)oxy)methyl)-1-methyl-1H-pyrazol-4-yl)phenyl)-2-oxabicyclo[2.2.2]octan-1-yl)acetic acid]	767 nM
CN(C(=O)OCc1c(-c2ccc(C34CCC(CC(=O)O)(CC3)OC4)cc2)cnn1C)C1CCCC1 [Example 4, 2-(4-(4-(5-(((cyclopentyl(methyl)carbamoyl)oxy)methyl)-1-methyl-1H-pyrazol-4-yl)phenyl)-2-oxabicyclo[2.2.2]octan-1-yl)acetic acid]	1610 nM
